Columns and labels:
[1] = target: T1, porcine succinate-cytochrome c reductase (SCR, the mixture of complex II and bc1) (Sus scrofa, UniProt P24964); test: SCR activity, succinate-cytochrome c system (Assay 1); format: biochemical; details: for ligand efficiency (LE): from Ki against bc1 complex; for binding behaviour to bc1 complex (slow or fast binding): progress curves of SCR-catalysed reaction
T1 construct: T h e S C R f r o m p o r c i n e h e a r t; from tissue; host or cells: porcine heart
Experimental: Figure 4 Slow-binding inhibition mechanism. (A,B) Effect of various concentrations of cytochrome c and compound 18 on the inhibition of SCR activity. Each reaction mixture contains 100 mM, pH 7.4), EDTA (0.3 mM), succinate (20 mM), SCR (0.1 nM), and indicated amounts of cytochrome c and compound 18. The assays were performed in the presence of (A) 18 (35 nM) and a specified amount of cytochrome c (1, 4 μM; 2, 8 μM; 3, 20 μM; and 4, 48 μM) or (B) cytochrome c (60 μM) and various concentrations of compound 18 (1, 0 nM; 2, 15 nM; 3, 20 nM; 4, 30 nM; 5, 40 nM; and 6, 50 nM). Experimental data are shown as coloured dots and theoretical values are represented as black solid lines. Insets: plots of Kobs against concentration of (A) cytochrome c and (B) compound 18. […] Each reaction mixture contains 100 mM, pH 6.5), EDTA (2 mM), lauryl maltoside (750 μM), oxidised cytochrome c (100 μM), SCR (0.05 nM), and indicated amounts of DBH2 and compound 18. Two representative sets of inhibitory assays were performed in the presence of (C) DBH2 (20 μM) and a specified amount of compound 18 (1, 20 nM; 2, 40 nM; 3, 60 nM; 4, 80 nM), or (D) DBH2 (120 μM) and a specified amount of compound 18 (1, 40 nM; 2, 80 nM; 3, 120 nM; 4, 180 nM). Insets: plots of Kobs against concentration of compound 18. (E) Plot of the apparent rate constant A against concentration of DBH2. Inset: Plot of 1/A against concentration of DBH2. (F) Plot of the apparent rate constant B against concentration of DBH2.
The porcine succinate-cytochrome c reductase (SCR, the mixture of complex II and bc1) was prepared essentially according to the previously reported method. The enzymatic activities of SCR, complex II, and bc1 complex were analyzed in respective reaction mixtures as reported previously. Kinetic analyses for the inhibition mechanism were performed as previously described. […]
inhibitory kinetics study of bc1 inhibitors 8. […]
synthesized compounds against bc1 complex were examined by SCR. As previously described 9, the combined activity of SCR can be determined by using succinate and cytochrome c as substrates (Assay 1). We also measured the activity of complex II by using succinate and 2,6-dichloroindophenol (DCIP) as substrates (Assay 2), or the activity of bc1 complex by using decylubiquinol (DBH2) and cytochrome c as substrates (Assay 3). […]
redA 10, was used to represent the enzyme concentration. The three redox reactions used in this study were summarized as follows.
Assay 1: succinate + cytochrome c3+ S C R fumarate + cytochrome c2+
Assay 2: succinate + DCIP complex II fumarate + DCIPH 2
Assay 3: DBH 2 + cytochrome c3+ bc1 complex DB + cytochrome c2+
All assays were performed at 23 °C. The enzymatic activity of SCR (Assay 1) was carried out in 1.8 mL of reaction mixture containing 100 mM PBS (pH 7.4), 0.3 mM EDTA, and indicated concentrations of succinate and oxidized cytochrome c (Sigma-Aldrich). The activity of succinate-ubiquinone reductase (complex II, Assay 2) was determined in essentially the same reaction mixture, except for the replacement of cytochrome c with DCIP (Alfa Aesar). […] DBH 2 was prepared through reduction of decylubiquinone by dithionite (Sigma-Aldrich) as previously described 11,12. The nonionic detergent LM was used to decrease the interfering non-enzymatic activity though it slightly […]

[2] = tested on: P. cubensis; test: Field trial, cucumber naturally infected, downy mildew; format: in vivo, Pseudoperonospora cubensis; details: 7th day
Experimental: To further study the potential of compound 18 against powdery mildew and downy mildew, field experiments were conducted during the growing season of summer squash and cucumber. The summer squash plants at a fruiting stage naturally infected by S. fuliginea were used. […] Almost no lesions were observed on the leaves of summer squash. […] Lesions on the leaves of control plants, however, expanded quickly, and intense fungal hyphae could be observed. The curative effect is approximately 64.85% for the AZ-treated (93.75 g.ai/ha) summer squash. In addition, field trials for the treatment of downy mildew of cucumber were also performed. Cucumber plants naturally infected by P. cubensis were used for the study. Fungi on the leaves of control plants expanded quickly and lesions could be observed.
In the field trials, summer squash plants which is naturally infected by S. fuliginea and cucumber plants which is naturally infected by P. cubensis were used.
The disease index and control effect of compound 18 were calculated via the following […]
Disease index (%) = ∑(Ni × i)/(N × 9) × 100 […]
Each treatment took up in four plots and was distributed randomly in each […]eld. The relative control effects were assessed after the 7th day of foliar application 18. […]

T1 sequence (P24964 whole entry, one chain of several): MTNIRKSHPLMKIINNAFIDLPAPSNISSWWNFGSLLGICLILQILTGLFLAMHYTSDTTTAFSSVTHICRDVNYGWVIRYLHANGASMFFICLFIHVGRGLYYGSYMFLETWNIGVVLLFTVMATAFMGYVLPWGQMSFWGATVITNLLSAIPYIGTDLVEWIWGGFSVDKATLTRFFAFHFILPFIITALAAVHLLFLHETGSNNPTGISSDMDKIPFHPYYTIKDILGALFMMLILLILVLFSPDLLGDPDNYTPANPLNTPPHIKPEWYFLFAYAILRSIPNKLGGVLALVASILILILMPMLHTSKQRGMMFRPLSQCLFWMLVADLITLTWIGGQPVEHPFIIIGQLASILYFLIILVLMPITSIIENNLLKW

CO/C=C(/C(=O)OC)c1ccccc1Oc1cc(Oc2ccccc2C#N)ncn1 [AZ, Azoxystrobin, reference compound]
ligand efficiency (LE) [1]: 0.3 kcal mol^−1 per non-H atom | binding behaviour to bc1 complex (slow or fast binding) [1]: fast-binding | curative effect, downy mildew (P. cubensis) ([2]; 75 g.ai/ha): 59.59%

COC=C(C(=O)OC)c1ccccc1CSc1nc2cc(OC)ccc2s1 [Compound 18]
Ki [1]: 4.1 ± 0.5 nM | inhibition type with respect to cytochrome c ([1]; Assay 1, varied cytochrome c): non-competitive | ∆∆Gexp ([1]; Table S1, experimental binding free energy change vs compound 1): -1.20 kcal/mol | ΔΔGexp ([1]; experimental binding free energy change relative to compound 1): -1.20 kcal/mol | ligand efficiency (LE) [1]: 0.45 kcal mol^−1 per non-H atom | binding behaviour to bc1 complex (slow or fast binding) [1]: slow-binding | kon ([1]; read-out: association rate constant k+0): 660000 ± 10000 M⁻¹ s⁻¹ | koff ([1]; read-out: dissociation rate constant k−0): 0.00271 ± 0.00031 s⁻¹ | curative effect, downy mildew (P. cubensis) ([2]; 60 g.ai/ha): approximately 82.59%
